Measurements published in ChEMBL document CHEMBL1147144, “Novel styrylpyridines as probes for SPECT imaging of amyloid plaques” (J Med Chem, 2007).

What was measured:
Heart [1] = test: Biodistribution in ICR mouse heart at 5 to 10 uCi, iv after 2 hrs; assay type: ADME, organism-based; conditions: in vivo
Brain [2] = test: Biodistribution in ICR mouse brain at 5 to 10 uCi, iv after 30 mins; assay type: ADME, organism-based; conditions: in vivo, 0.5 h
Liver [3] = test: Biodistribution in ICR mouse liver at 5 to 10 uCi, iv after 1 hr; assay type: ADME, organism-based; conditions: in vivo
Brain [4] = test: Biodistribution in ICR mouse brain at 5 to 10 uCi, iv after 2 mins; assay type: ADME, organism-based; conditions: in vivo
Lung [5] = test: Biodistribution in ICR mouse lung at 5 to 10 uCi, iv after 30 mins; assay type: ADME, organism-based; conditions: in vivo, 0.5 h
Thyroid gland [6] = test: Biodistribution in ICR mouse thyroid at 5 to 10 uCi, iv after 1 hr; assay type: ADME, organism-based; conditions: in vivo
Kidney [7] = test: Biodistribution in ICR mouse kidney at 5 to 10 uCi, iv after 2 mins; assay type: ADME, organism-based; conditions: in vivo
Kidney [8] = test: Biodistribution in ICR mouse kidney at 5 to 10 uCi, iv after 2 hrs; assay type: ADME, organism-based; conditions: in vivo
Thyroid gland [9] = test: Biodistribution in ICR mouse thyroid at 5 to 10 uCi, iv after 30 mins; assay type: ADME, organism-based; conditions: in vivo, 0.5 h
Spleen [10] = test: Biodistribution in ICR mouse spleen at 5 to 10 uCi, iv after 30 mins; assay type: ADME, organism-based; conditions: in vivo, 0.5 h
Heart [11] = test: Biodistribution in ICR mouse heart at 5 to 10 uCi, iv after 1 hr; assay type: ADME, organism-based; conditions: in vivo
Blood [12] = test: Biodistribution in ICR mouse blood at 5 to 10 uCi, iv after 2 mins; assay type: ADME, organism-based; conditions: in vivo
Blood [13] = test: Biodistribution in ICR mouse blood at 5 to 10 uCi, iv after 30 mins; assay type: ADME, organism-based; conditions: in vivo, 0.5 h
Kidney [14] = test: Biodistribution in ICR mouse kidney at 5 to 10 uCi, iv after 1 hr; assay type: ADME, organism-based; conditions: in vivo
Lung [15] = test: Biodistribution in ICR mouse lung at 5 to 10 uCi, iv after 1 hr; assay type: ADME, organism-based; conditions: in vivo
Zone of skin [16] = test: Biodistribution in ICR mouse skin at 5 to 10 uCi, iv after 1 hr; assay type: ADME, organism-based; conditions: in vivo
Zone of skin [17] = test: Biodistribution in ICR mouse skin at 5 to 10 uCi, iv after 2 mins; assay type: ADME, organism-based; conditions: in vivo
Blood [18] = test: Biodistribution in ICR mouse blood at 5 to 10 uCi, iv after 2 hrs; assay type: ADME, organism-based; conditions: in vivo
[19] = Partition coefficient, log P at pH 7.4; assay type: physicochemical; conditions: octanol/water
Thyroid gland [20] = test: Biodistribution in ICR mouse thyroid at 5 to 10 uCi, iv after 2 mins; assay type: ADME, organism-based; conditions: in vivo
Spleen [21] = test: Biodistribution in ICR mouse spleen at 5 to 10 uCi, iv after 2 mins; assay type: ADME, organism-based; conditions: in vivo
Thyroid gland [22] = test: Biodistribution in ICR mouse thyroid at 5 to 10 uCi, iv after 2 hrs; assay type: ADME, organism-based; conditions: in vivo
Lung [23] = test: Biodistribution in ICR mouse lung at 5 to 10 uCi, iv after 2 hrs; assay type: ADME, organism-based; conditions: in vivo
Blood [24] = test: Biodistribution in ICR mouse blood at 5 to 10 uCi, iv after 1 hr; assay type: ADME, organism-based; conditions: in vivo
Muscle tissue [25] = test: Biodistribution in ICR mouse muscle at 5 to 10 uCi, iv after 2 mins; assay type: ADME, organism-based; conditions: in vivo
Heart [26] = test: Biodistribution in ICR mouse heart at 5 to 10 uCi, iv after 2 mins; assay type: ADME, organism-based; conditions: in vivo
Kidney [27] = test: Biodistribution in ICR mouse kidney at 5 to 10 uCi, iv after 30 mins; assay type: ADME, organism-based; conditions: in vivo, 0.5 h
Brain [28] = test: Biodistribution in ICR mouse brain at 5 to 10 uCi, iv after 2 hrs; assay type: ADME, organism-based; conditions: in vivo
Liver [29] = test: Biodistribution in ICR mouse liver at 5 to 10 uCi, iv after 2 mins; assay type: ADME, organism-based; conditions: in vivo
Zone of skin [30] = test: Biodistribution in ICR mouse skin at 5 to 10 uCi, iv after 2 hrs; assay type: ADME, organism-based; conditions: in vivo
Muscle tissue [31] = test: Biodistribution in ICR mouse muscle at 5 to 10 uCi, iv after 30 mins; assay type: ADME, organism-based; conditions: in vivo, 0.5 h
Zone of skin [32] = test: Biodistribution in ICR mouse skin at 5 to 10 uCi, iv after 30 mins; assay type: ADME, organism-based; conditions: in vivo, 0.5 h
Spleen [33] = test: Biodistribution in ICR mouse spleen at 5 to 10 uCi, iv after 1 hr; assay type: ADME, organism-based; conditions: in vivo
Spleen [34] = test: Biodistribution in ICR mouse spleen at 5 to 10 uCi, iv after 2 hrs; assay type: ADME, organism-based; conditions: in vivo
Brain [35] = test: Biodistribution in ICR mouse brain at 5 to 10 uCi, iv after 1 hr; assay type: ADME, organism-based; conditions: in vivo
Muscle tissue [36] = test: Biodistribution in ICR mouse muscle at 5 to 10 uCi, iv after 1 hr; assay type: ADME, organism-based; conditions: in vivo
Liver [37] = test: Biodistribution in ICR mouse liver at 5 to 10 uCi, iv after 2 hrs; assay type: ADME, organism-based; conditions: in vivo
Muscle tissue [38] = test: Biodistribution in ICR mouse muscle at 5 to 10 uCi, iv after 2 hrs; assay type: ADME, organism-based; conditions: in vivo
Heart [39] = test: Biodistribution in ICR mouse heart at 5 to 10 uCi, iv after 30 mins; assay type: ADME, organism-based; conditions: in vivo, 0.5 h
Brain [40] = test: Ratio of drug distribution in brain after 2 mins to 30 mins in ICR mouse at 5 to 10 uCi, iv; assay type: ADME, organism-based; conditions: in vivo
Lung [41] = test: Biodistribution in ICR mouse lung at 5 to 10 uCi, iv after 2 mins; assay type: ADME, organism-based; conditions: in vivo
Liver [42] = test: Biodistribution in ICR mouse liver at 5 to 10 uCi, iv after 30 mins; assay type: ADME, organism-based; conditions: in vivo, 0.5 h

Drug uptake (Heart [1]): 0.73 % ID/g | Drug uptake (Brain [2]): 1.93 % ID/g | Drug uptake (Liver [3]): 5.34 % ID/g | Drug uptake (Brain [4]): 4.03 % ID/g | Drug uptake (Lung [5]): 2.5 % ID/g | Drug uptake (Thyroid gland [6]): 24.2 % ID/g | Drug uptake (Kidney [7]): 16.6 % ID/g | Drug uptake (Kidney [8]): 1.71 % ID/g | Drug uptake (Thyroid gland [9]): 16.2 % ID/g | Drug uptake (Spleen [10]): 1.42 % ID/g | Drug uptake (Heart [11]): 0.97 % ID/g | Drug uptake (Blood [12]): 2.7 % ID/g | Drug uptake (Blood [13]): 2.05 % ID/g | Drug uptake (Kidney [14]): 2.3 % ID/g | Drug uptake (Lung [15]): 1.62 % ID/g | Drug uptake (Zone of skin [16]): 1.59 % ID/g | Drug uptake (Zone of skin [17]): 0.54 % ID/g | Drug uptake (Blood [18]): 1.45 % ID/g | logD [19]: 2.2 | Drug uptake (Thyroid gland [20]): 3.89 % ID/g | Drug uptake (Spleen [21]): 4.47 % ID/g | Drug uptake (Thyroid gland [22]): 60.8 % ID/g | Drug uptake (Lung [23]): 1.33 % ID/g | Drug uptake (Blood [24]): 1.65 % ID/g | Drug uptake (Muscle tissue [25]): 0.9 % ID/g | Drug uptake (Heart [26]): 12.76 % ID/g | Drug uptake (Kidney [27]): 3.32 % ID/g | Drug uptake (Brain [28]): 0.26 % ID/g | Drug uptake (Liver [29]): 22.2 % ID/g | Drug uptake (Zone of skin [30]): 1.23 % ID/g | Drug uptake (Muscle tissue [31]): 1 % ID/g | Drug uptake (Zone of skin [32]): 1.47 % ID/g | Drug uptake (Spleen [33]): 0.99 % ID/g | Drug uptake (Spleen [34]): 0.79 % ID/g | Drug uptake (Brain [35]): 0.68 % ID/g | Drug uptake (Muscle tissue [36]): 0.59 % ID/g | Drug uptake (Liver [37]): 5.62 % ID/g | Drug uptake (Muscle tissue [38]): 0.53 % ID/g | Drug uptake (Heart [39]): 1.63 % ID/g | Ratio (Brain [40]): 2.09 | Drug uptake (Lung [41]): 10.1 % ID/g | Drug uptake (Liver [42]): 9.54 % ID/g
Compound: CN(C)c1ccc(/C=C/c2cnc(OCCOCCOCCF)c([125I])c2)cc1
